Laboratory results reported in patent publication US20230203440A1, “AXIAL STEM CELLS, METHODS OF PRODUCING AND USES THEREOF” (HELMHOLTZ ZENTRUM MUNCHEN - DEUTSCHES FORSCHUNGSZENTRUM FUR …, priority 2020, published 2023).

Legend:
[1] = test system: H9 hESC line; assay: Axial stem cell derivation from hESCs by serial passaging in maintenance medium with ligands; format: cell-based, human; conditions: for derivation of stable lines on addition of the ligand: added to maintenance medium
Method: (§1) Cells were seeded as described above and treated with 10 μM CHIR for 24 hours. Afterwards cells were split at 1:20-1:30 ratio into Matrigel-coated 6-well plates containing maintenance medium (RPMI-1640 supplemented with L-Glutamine, 1× non-essential amino acids, 1× B-27 supplement without vitamin A and the respective ligands (see Table 1) and the cultures were incubated until they became confluent. Confluent cultures were routinely split at 1:10-1:20 ratio until the end of establishment phase defined at passage 9. Splitting was done with either Passaging solution XF or Versene (Life Technologies). FGF2-containing medium was prepared freshly every week, the media without FGF2—at least every 2 weeks. No manual colony picking or scraping off the differentiated cells was employed at any stage during the establishment of cell lines.
Total RNA was isolated using RNeasy mini kit (Qiagen). cDNA was synthesized from 0.2-1 μg of total RNA (normalized amount between samples within each experiment) using Verso cDNA synthesis kit (Thermo Scientific) according to manufacturers instructions. 1 μl of cDNA (1:5 dilutions) were used as template in 10 μl qPCR reactions. PCR was set up using either pre-designed Taqman Gene Expression Assays together with Taqman Gene Expression Master Mix (both from Thermo Scientific) or custom-designed primers together with Power SYBR Green master mix (Thermo Scientific). All primer and Taqman probe details are listed in, e.g., Table 2. Primer concentration in the reactions was 250 nM for all primers. PCR was performed on QuantStudio 12K Flex Real-Time PCR System (Thermo Scientific) using pre-defined cycling parameters. 2 technical replicates were run for each reaction. Taqman assays and primers used are listed in, e.g., Table 2. GAPDH served as a housekeeping gene in all experiments. Relative fold changes (FC) in gene expression were calculated using ΔΔCt method (Livak and Schmittgen, 2001). Results are presented as mean ΔΔCt±standard error of the mean between biological replicates, unless indicated otherwise. Plots were produced using ggplot2 package (Wickham, 2009) in RStudio software running R version 3.5.1 (R Core Team, 2018).
For immunofluorescent analysis, cells were seeded onto either matrigel-coated glass coverslips or into matrigel-coated 4-well μ-slides (Ibidi). For IF on differentiated motor neurons, AxCS lines were differentiated directly on the coverslips. […] Primary antibody dilutions (e.g., Table 3) in the blocking buffer were added and incubated overnight at 4° C. Next day, cells were washed with PBS 3 times and incubated with secondary antibodies diluted in PBS for 1 hours at RT. Coverslips were mounted using ProLong Gold mounting reagent with DAPI. Images were obtained at 63× magnification using Zeiss Axio Observer.Z1 epifluorescent microscope equipped with Apotome.2 and Zen software (Zeiss).

[2] = test system: human iPSC line HMGU #1; assay: Axial stem cell derivation from human iPS cell line; format: cell-based; conditions: 10 μM CHIR99021 with inhibition of TGF-β, human iPSCs
Method: as §1, with “FIG. 6: A) Schematic of axial stem cell derivation from human iPS cell line (HMGU #1). μM concentrations refer to CHIR99021. […] B) Quantitative qPCR analysis of marker gene expression in iPS-derived axial stem cell lines at passage 9. Expression is normalized to GAPDH and plotted as log2 fold change over undifferentiated parental iPS cell line. Error bars represent standard error of the mean between biological replicates (derivations). n=1 to 6. Cells” for “Cells”

[3] = test system: hESCs; assay: Continuous CHIR99021 treatment of hESCs (time course, qPCR and RNA-seq); format: cell-based, human; conditions: continuous 10 μM treatment of hESCs, compared to transient activation for 24 hours
Method: In time course experiments cells were dissociated using Accutase (Sigma) and seeded into 12-well plates at 2.5×10^5 cells per well in mTesR1 medium supplemented with 10 μM Y-27632 (R&D). 24 hours later medium was replaced with differentiation medium: RPMI-1640 with L-Glutamine and 1× B-27 supplement without insulin containing 10 μM CHIR99021 (Tocris). In case of beta-catenin overexpression, the procedure was the same, except that CHIR99021 was replaced with 1 μg/ml doxycycline (Clontech). All cell culture media components were from Life Technologies unless indicated otherwise.
Total RNA was isolated using RNeasy mini kit (Qiagen). cDNA was synthesized from 0.2-1 μg of total RNA (normalized amount between samples within each experiment) using Verso cDNA synthesis kit (Thermo Scientific) according to manufacturers instructions. […] Relative fold changes (FC) in gene expression were calculated using ΔΔCt method (Livak and Schmittgen, 2001). […]
3 μg of total RNA were treated with TURBO DNase (Life Technologies) and purified using RNeasy Minelute RNA cleanup kit (Qiagen). RNA quality was assessed using microcapillary electrophoresis on Agilent 2100 Bioanalyzer with RNA Pico 6000 kit (Agilent) and only RNA with RIN values >8 was processed further. […] The quality of the libraries was assessed using Agilent 2100 Bioanalyzer with the DNA 1000 kit (Agilent). […] Sequencing depth was 12-14 Mio reads per sample. […]

FGF2
sustained TBXT expression on passaging ([1]; passaging in presence of CHIR99021 with or without FGF2): sustained expression required the presence of FGF2

Cc1c[nH]c(-c2cnc(NCCNc3ccc(C#N)cn3)nc2-c2ccc(Cl)cc2Cl)n1 [CHIR99021]
marker expression of derived cell lines ([1]; 5 μM CHIR99021 alone): high levels of SOX2 in conjunction with PAX6, but no T, CDX2, MIXL1 or EOMES
marker expression of derived cell lines ([1]; 5 μM CHIR99021 with FGF2): high levels of SOX2, TBXT, CDX2, MIXL1, EOMES and very low level or no PAX6
marker expression of derived cell lines ([1]; 7.5 μM CHIR99021): intermediate levels of TXBT and PAX6
toxicity to conversion ([1]; 10 μM CHIR99021, hESC): toxic to hESC conversion
derivation of cell lines ([1]; 5 or 7.5 μM CHIR99021, presence or absence of FGF2, hESCs): enabled the derivation of lines that exhibited compact stem cell colony morphology
derivation of cell lines ([1]; CHIR99021 lower than 5 μM): did not promote the formation of cell lines
SOX2 expression of passaged progeny ([1]; passaging beginning at 24 hours, in presence of CHIR99021): stably expressing SOX2 at a comparable level to undifferentiated hESCs
derivation of axial cell lines [2]: permissive for the derivation of SOX2/TXBT axial cell lines
TBXT expression [3]: sustained high level of TBXT

TGF-β: Human recombinant TGF-β1 (Peprotech)
derivation of stable lines on addition of the ligand [1]: prohibited the deviation of stable lines altogether

NC(=O)c1ccc(-c2nc(-c3ccc4c(c3)OCO4)c(-c3ccccn3)[nH]2)cc1 [SB-431542]
spontaneous differentiation and colony compactness of the stem cell lines ([1]; TGF-β inhibition): reduced spontaneous differentiation and maintained the lines as more compact colonies
cell and colony morphology of derived lines ([1]; TGF-β inhibitor applied to maintenance medium): created more compact cells and denser colonies

B1: BMP4: Human recombinant BMP4 (R&D Systems) (protein, UniProt P12644 293-408, looked up)
Bone morphogenetic protein 4: SPKHHSQRARKKNKNCRRHSLYVDFSDVGWNDWIVAPPGYQAFYCHGDCPFPLADHLNSTNHAIVQTLVNSVNSSIPKACCVPTELSAISMLYLDEYDKVVLKNYQEMVVEGCGCR
derivation of stable lines on addition of the ligand [1]: prohibited the deviation of stable lines altogether
